# Reference: paper PMC9779571, “Guanidine Derivatives Containing the Chalcone Skeleton Are Potent Antiproliferative Compounds against Human Leukemia Cells” (International Journal of Molecular Sciences, 2022)
# Experiments:
# HL-60 cells = assay: MTT cytotoxicity assay, HL-60; type: cell-based; conditions: Homo sapiens, HL-60, 72 h, means ± SEM
# From the text: (§1) U-937, HL-60, MOLT-3, NALM-6, and SK-MEL-1 cells were from DSMZ (German Collection of Microorganisms and Cell Cultures, Braunschweig, Germany). U-937/Bcl-2 cells were kindly provided by Dr. Jacqueline Bréard (INSERM U749, Faculté de Pharmacie Paris-Sud, Châtenay-Malabry, France). The U-937 is a pro-monocytic, human promyelocytic leukemia cell line that was isolated from a histiocytic lymphoma. HL-60 is a human acute myeloid leukemia cell line. MOLT-3 is a human acute lymphoblastic leukemia cell line. NALM-6 is a human B cell precursor leukemia. SK-MEL-1 is a human melanoma cell line growing singly or in clumps (occasional giant, polynucleated cell) in suspension. Cells were cultured in RPMI 1640 medium containing 10% (v/v) heat-inactivated fetal bovine serum, 100 μg/mL streptomycin, and 100 U/mL penicillin, incubated at 37 °C in a humidified atmosphere containing 5% CO2 as described. The doubling times of the cell lines were 24 h in HL-60, 30 h in U-937, U-937/Bcl-2, 40 h in MOLT-3 and NALM-6, and several days in SK-MEL-1 cells. Human peripheral blood mononuclear cells (PBMC) were isolated from heparin-anticoagulated blood of healthy volunteers by centrifugation with Ficoll-Paque Plus (GE Healthcare Bio-Sciences AB, Uppsala, Sweden). PBMC were also stimulated with phytohemagglutinin (2 µg/mL) for 48 h before the experimental treatment. The trypan blue exclusion method was used for counting the cells by a hemocytometer with 95% viability in all the experiments. Compounds were dissolved in dimethyl sulfoxide (DMSO) and kept under dark conditions at 25 °C. […] The cytotoxicity of the synthetic compounds was evaluated by colorimetric 3-(4,5-dimethyl-2-thiazolyl-)-2,5-diphenyl-2H-tetrazolium bromide (MTT) assay as previously described. Briefly, cells (5000 per well) were incubated with increasing concentrations of compounds for 72 h into a 96-well plate. Then, the supernatants were removed and 0.5 mg/mL MTT was added and incubated for 4 h at 37 °C. Sodium dodecyl sulfate (10% w/v) in 0.05 M HCl was added to solubilize the reaction products and the absorbance was measured at 570 nm with a reference wavelength of […] using an ELISA reader (Bio-Rad, Hercules, CA, USA). The IC50 values (concentrations inducing a 50% inhibition of cell viability) were determined graphically for each experiment by a nonlinear regression using the curve fitting routine implemented within the software Prism 5.0 (GraphPad, La Jolla, CA, USA).
# MOLT-3 cells = assay: MTT cytotoxicity assay, MOLT-3; type: cell-based, human; conditions: means ± SEM
# From the text: as §1
# NALM-6 cells = assay: MTT cytotoxicity assay, NALM-6; type: cell-based, human; conditions: 72 h, MTT, means ± SEM
# From the text: as §1
# PBMC = assay: Annexin V-FITC/propidium iodide flow cytometry, PBMC; type: cell-based, human; conditions: 24 h; for annexin V-FITC positive cells with respect to control: 3 µM; for fold increase of annexin V-FITC positive cells with respect to control / annexin V-FITC positive cells: 10 µM; for annexin V-FITC positive cells: control 9.3%
# From the text: as §1
# Cells (2.5 × 10^5) were centrifuged for 10 min at 500× g, washed with cold PBS, fixed with ice-cold 75% ethanol and stored at −20 °C overnight. Samples were then centrifuged at 500× g for 10 min at 4 °C, washed with PBS, resuspended in 200 μL of PBS containing 100 μg/mL RNase and 50 μg/mL propidium iodide and incubated for 1 h in the dark. The DNA content was analyzed by flow cytometry with a BD FACSVerse^TM cytometer (BD Biosciences, San Jose, CA, USA). Apoptosis was also evaluated by flow cytometric analysis of double-staining annexin V-FITC and propidium iodide cells as previously described.
# [1] = test system: caspases-3/7, -8, and -9 in U-937 cells; assay: Caspase activity in lysates of treated cells (colorimetric tetrapeptide substrates); type: cell-based, human; conditions: U-937, 10 µM, 24 h
# Protocol: Caspase activity was determined by measuring proteolytic cleavage of specific chromogenic substrates as previously described. Briefly, cells were treated with the specified guanidines for 24 h, harvested by centrifugation (1000× g for 5 min at 4 °C), washed twice with PBS, resuspended in lysis buffer (50 mM HEPES, pH 7.4, 0.1 mM EDTA, 1 mM dithiothreitol, and 0.1% Chaps), spun (17,000× g for 10 min at 4 °C) and the supernatants were normalized by protein concentration and used to determine enzyme activity. The net increase in absorbance at 405 nm after incubation at 37 °C was indicative of caspase activity. The colorimetric substrates were DEVD-pNA (for caspase-3 like protease activity), IETD-pNA (for caspase-8 activity), and LEHD-pNA (for caspase-9 activity).
# U-937 cells = assay: Western blot of PARP, caspases and cytosolic cytochrome c; type: cell-based, human; conditions: 24 h; for full-length PARP protein (immunoblot): U-937, 10 µM; for mitochondrial cytochrome c release (cytosolic fraction, immunoblot): U-937, increasing concentrations
# Protocol: For whole cell lysates, cells were harvested by centrifugation (500× g, 10 min, 4 °C), washed twice with PBS, and pellets were resuspended in lysis buffer (1% Triton X-100, 10 mM sodium fluoride, 2 mM EDTA, 20 mM Tris-HCl (pH 7.4), 2 mM tetrasodium pyrophosphate, 10% glycerol, 137 mM NaCl, and 20 mM sodium β-glycerophosphate), with the protease inhibitors phenylmethylsulfonyl fluoride (PMSF, 1 mM), aprotinin, leupeptin, and pepstatin A (5 μg/mL each) and kept on ice for 15 min. Cells were sonicated on ice 5 times (5 s each, with intervals between each sonication of 5 s) with a Braun Labsonic 2000 microtip sonifier and centrifuged (11,000× g, 10 min, 4 °C). For subcellular fractionation, cells were washed twice with PBS and then resuspended in ice-cold buffer (20 mM HEPES (pH 7.5), 250 mM sucrose, 10 mM KCl, 1.5 mM MgCl2, 1 mM EDTA, 1 mM EGTA, and 1 mM dithiothreitol containing protease inhibitors (0.1 mM PMSF and 1 µg/mL leupeptin, aprotinin, and pepstatin A)). After 15 min on ice, cells were lysed by pushing them several times through a 29-gauge needle, and the lysate was centrifuged at 1000× g for 5 min at 4 °C. The resulting supernatant fraction was centrifuged at 15,000× g for 20 min at 4 °C, and the resulting supernatant was used as the cytosolic fraction. The Bradford method was used to determine protein concentration. The samples loaded in sodium dodecyl sulfate-polyacrylamide gel (from 7.5 to 15% depending on the molecular weight of interest) were prepared with the same protein amount and boiled for 5 min. The proteins were transferred to poly(vinylidene difluoride) membranes for 20 h at 20 V. The membranes were blocked with 10% nonfat milk in Tris-buffered saline (50 mM Tris-HCl (pH 7.4), 150 mM NaCl) containing 0.1% Tween-20 (TBST) for 1 h, followed by incubation with specific antibodies against caspase-3, PARP, caspase-9, β-actin, tubulin, and cytochrome c overnight at 4 °C. Membranes were washed three times with TBST and incubated for 1 h with the specific secondary antibody and the antigen-antibodies complexes were visualized by enhanced chemiluminescence using the manufacturer’s protocol.
SMILES,IC50 (HL-60 cells),"IC50 (MOLT-3 cells; Homo sapiens, MOLT-3, 72 h)","IC50 (NALM-6 cells; Homo sapiens, NALM-6, 72 h)",annexin V-FITC positive cells with respect to control (PBMC),fold increase of annexin V-FITC positive cells with respect to control (PBMC),annexin V-FITC positive cells (PBMC),caspase-8 activation [1],increase of caspase-3/7 and caspase-9 activities compared with control [1],full-length PARP protein (immunoblot) (U-937 cells),"mitochondrial cytochrome c release (cytosolic fraction, immunoblot) (U-937 cells)",IC50 (MOLT-3 cells; 72 h),IC50 (NALM-6 cells)
Cc1ccc(S(=O)(=O)NC(=Nc2ccc(/C=C/C(=O)c3c(O)cccc3OCc3ccccc3)cc2)N2CCN(C)CC2)cc1 [Compound 6f],1.6 ± 1 µM,1.5 µM,2.7 µM,hardly increased,3 fold,27%,less activated,approximately three-fold,dramatically decreased,concentration-dependent release,–,–
O=C(/C=C/c1ccc(N=C(Nc2ccccc2)N2CCCCC2)cc1)c1c(O)cccc1OCc1ccccc1 [Compound 6i],–,< 10 µM,~10 µM,hardly increased,1.4 fold,13%,less activated,two-fold,dramatically decreased,concentration-dependent release,7.1 ± 1.3 µM,10.8 ± 0.5 µM
